Where “and” joins values, the source holds several entries; their conditions need not be identical. Equal values may be shown once. Calls of active or inactive are those of the source.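 The calls were made as follows: active = fitted curve reaches 40% activation below the top valid dose in every replicate test, signal rising; inconclusive = replicate tests disagree on the call; inactive = all replicate tests inactive, including opposite-direction effects.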
Key:
[1] = glycosylation-sensitive ERlucT reporter luminescence gain – D54 ERlucT glioma cells, dry powder, set 6, N-linked glycosylation inhibitor project, dose response (AID 1053121); conditions: D54 ERlucT glioma cells, NLG luciferase reporter gain-of-signal, 24 h; at 19.5 µM (top of the series)
[2] = tested on: D54 ERlucT glioma cells, NLG luciferase reporter gain-of-signal, 24 h; experiment: as above

Compound	activation (reporter increase) [1]	AC40 [2]
O=C(Cc1ccccc1)c1nnc(-c2ccccc2)o1	-94.1% (inactive)	–
CCCOC(=O)c1[nH]c2c(c1C)C(=O)CC(c1cccs1)C2 (configuration not stated)	–	1.5 µM
CCN(CC)CCC(=O)Nc1cccc2c1C(=O)c1ccccc1C2=O	–	0.729 µM
Cc1cc(=O)[nH]c(N/N=C/c2cc(C)n(CC(F)(F)F)c2C)n1	-91.2% (inactive)	–
Cc1cccc(C)c1OCCNC(=O)C(=O)NCc1ccco1	–	3.62 µM
Cc1cnc(NC(=O)c2cc(S(=O)(=O)N(C)C)ccc2N2CCNCC2)s1	-10.1% (inactive)	–
CN(C)S(=O)(=O)c1ccc(N2CCCC2)c(C(=O)Nc2nccs2)c1	–	1.91 µM
CN(C)S(=O)(=O)c1ccc(N2CCCC2)c(C(=O)N2CCOCC2)c1	3.4% (inactive)	–
Cc1cnc(NC(=O)c2cc(S(=O)(=O)N3CCCC3)ccc2N2CCCC2)s1	–	0.934 µM
Cc1ccc(/C=N/NC(=O)C2COc3ccccc3O2)s1 (configuration not stated)	–	1.21 µM
CCCNS(=O)(=O)c1cccc(C(=O)OCc2cc(=O)oc3cc(OC)ccc23)c1	-91.2% (inactive)	–
Cc1cnc(NC(=O)c2cc(S(=O)(=O)N(C)C)ccc2N2CCC2)s1	–	0.364 µM
CN(C)CCCN(Cc1cc2ccccc2[nH]c1=O)C(=O)NCc1ccccc1	0% (inactive)	–
CN(C)S(=O)(=O)c1ccc(N2CCCC2)c(C(=O)Nc2ccccc2F)c1	-4.62% (inactive)	–
Cc1cnc(NC(=O)c2cc(S(=O)(=O)N(CC(C)C)CC(C)C)ccc2N2CCCC2)s1	-35.5% (inactive)	–
Cc1cnc(NC(=O)c2cc(S(=O)(=O)N3CCOCC3)ccc2N2CCCC2)s1	–	0.307 µM
CN(C)S(=O)(=O)c1ccc(N2CCCC2)c(C(=O)Nc2nc3ccccc3s2)c1	–	0.467 µM
CCOc1ccc(NC(=O)c2cc(OC)nc3ccccc23)cc1	–	0.41 µM
CN(C)S(=O)(=O)c1ccc(N2CCCC2)c(C(=O)Nc2ccc(Br)cc2)c1	32% (inactive)	–
Cc1ccc(C(=O)c2cc([N+](=O)[O-])ccc2N2CCOCC2)cc1C	–	1.1 µM
Nc1nc(=S)c2ncn([C@@H]3O[C@H](CO)[C@@H](O)[C@H]3O)c2[nH]1	–	0.771 µM
COc1ccc2sc(NC(=O)c3cc(S(=O)(=O)N(C)C)ccc3N3CCCC3)nc2c1	29.4% (inactive)	–

Compound	activation (reporter increase) [1]	AC40 [2]
CC(=O)c1ccc(Oc2cc(C)nc(-n3nc(C)cc3C)n2)cc1	–	0.645 µM
CN(C)C(=O)c1cc(S(=O)(=O)N(C)C)ccc1N1CCCC1	8.83% (inactive)	–
COc1ccccc1-c1nnc(SCc2ccccc2)o1	-20.7% (inactive)	–
Cc1cnc(NC(=O)c2cccc(S(=O)(=O)N(C)C)c2)s1	-7.17% (inactive)	–
CN(C)S(=O)(=O)c1ccc(N2CCCC2)c(C(=O)Nc2cccc(F)c2)c1	–	2.61 µM
C/C(=N\NC(=O)c1c([N+](=O)[O-])c(C)nn1C)c1ccc(NC(=O)C2CCCC2)cc1	-76.5% (inactive)	–
CCn1c2ccccc2c2cc(NC(=O)c3cc(OC)c(OC)c(OC)c3)ccc21	–	0.0419 µM
CCOC(=O)COc1cccc2c(=O)n(CC(=O)NCc3ccccc3)ccc12	–	0.121 µM
Cc1cc(C)cc(C(=O)N2CC(=O)Nc3ccccc32)c1	–	12.1 µM
COC(=O)c1cn(C(=O)c2ccc(OC)cc2)c2ccccc12	–	1.21 µM
CCN(CC)S(=O)(=O)c1ccc(N2CCCC2)c(C(=O)Nc2ncc(C)s2)c1	–	12 µM
COc1cccc(N2CCN(C(=O)c3ccc(CS(=O)c4ccc(C)cc4)o3)CC2)c1 (configuration not stated)	–	0.237 µM
COc1cc(Nc2c3c(nc4ccccc24)CCCC3)cc(OC)c1OC	–	3.59 µM
CCOC(=O)c1ccc(Oc2cc(C)nc(SC)n2)cc1	–	3.89 µM
Cc1cnc(NC(=O)c2cc(S(=O)(=O)N(C)C)ccc2N2CCCCC2)s1	–	13.7 µM
Cc1cnc(NC(=O)c2cc(S(=O)(=O)NCc3ccccc3)ccc2N2CCCC2)s1	–	3.67 µM
COc1ccccc1NC(=O)c1cc(S(=O)(=O)N(C)C)ccc1N1CCCC1	30.1% (inactive)	–
Cc1ccc(CCC(=O)Nc2ncc(Cc3cc(Cl)ccc3Cl)s2)o1	–	0.205 µM
CCCCOc1ccccc1C1CC(=O)NC2=C1C(=O)CCC2 (configuration not stated)	–	0.948 µM
CN(C)S(=O)(=O)c1ccc(N2CCCC2)c(C(=O)Nc2ccccc2Cl)c1	5.18% (inactive)	–
Cc1cnc(NC(=O)c2cc(S(=O)(=O)N(C)C)ccc2N(C)C)s1	–	5.2 µM
COc1ccc(NC(=O)C(=O)c2cn(CC(=O)N3CCCC3)c3ccccc23)cc1	–	0.0621 µM

Compound	activation (reporter increase) [1]	AC40 [2]
Cc1cnc(NC(=O)c2cc(S(=O)(=O)N(C)C)ccc2N2CCCC2)s1	–	0.421 µM and 0.0693 µM and 0.209 µM
COc1ccc2c(COC(=O)c3cccc(S(=O)(=O)NCC(C)C)c3)cc(=O)oc2c1	19.5% (inactive)	–
COc1ccc(CSc2nnc(-c3ccccc3)o2)cc1	-76.5% (inactive)	–
CCN(CC)CCCNc1nc2cc(OC)c(OC)cc2c2nc(-c3ccccc3)nn12	–	1.66 µM
c1ccc(CSc2nnc(-c3ccccc3)o2)cc1	-94.1% (inactive)	–
O=C1CCNc2cc3ccccc3cc21	-83.9% (inactive)	–
CN(C)S(=O)(=O)c1ccc(N2CCCC2)c(C(=O)Nc2cccnc2)c1	48.4% (inactive)	–
CCOc1ccc(S(=O)(=O)NCc2ccccn2)cc1NC(=O)c1ccccc1F	–	1.37 µM
Cc1cc(NC(=O)CSc2nc(-c3ccco3)cc(C(F)(F)F)n2)no1	–	0.434 µM
Cc1cnc(NC(=O)c2cc(S(=O)(=O)N3CCNCC3)ccc2N2CCCC2)s1	–	9.46 µM
Cc1[nH][nH]c(=O)c1C(c1ccc(-c2ccc(Cl)c(Cl)c2)o1)c1c(C)[nH][nH]c1=O	–	1.02 µM
COc1cc(-c2nnc(SCC3(c4ccc(Br)cc4)OCCO3)o2)cc(OC)c1OC	–	1.34 µM
Cc1cnc(NC(=O)c2cc(S(=O)(=O)N(C)c3ccccc3)ccc2N2CCCC2)s1	10.9% (inactive)	–
CN(C)S(=O)(=O)c1ccc(N2CCCC2)c(C(=O)Nc2ccccc2)c1	–	1.08 µM
CCN(CC)CCOc1ccc2c(c1)C(=NNC(=O)c1ccccn1)c1cc(OCCN(CC)CC)ccc1-2	–	3.07 µM
Cc1ccc2cc(CN(CCCN(C)C)C(=O)NCc3ccccc3)c(=O)[nH]c2c1C	–	2.68 µM
Cc1csc(NC(=O)c2cc(S(=O)(=O)N(C)C)ccc2N2CCCC2)n1	–	0.575 µM
COc1ccc(NC(=O)c2cc(S(=O)(=O)N(C)C)ccc2N2CCCC2)cc1	–	10.3 µM
CC(=O)c1cccc(NC(=O)CSc2ncc(C(=O)Nc3ccccc3)c(=O)n2C)c1	–	6.87 µM
CN(C)CCCN(Cc1cc2ccccc2[nH]c1=O)C(=O)Nc1ccccc1	-2.22% (inactive)	–
COc1ccccc1CSc1nnc(-c2ccccc2)o1	-67.6% (inactive)	–
CN(C)S(=O)(=O)c1ccc(N2CCCC2)c(C(=O)Nc2ccncc2)c1	16.1% (inactive)	–

Compound	activation (reporter increase) [1]	AC40 [2]
Cc1cnc(NC(=O)c2cc(S(=O)(=O)N3CCCCC3)ccc2N2CCCC2)s1	–	7.07 µM
COc1ccccc1OCC(=O)NNC(=O)c1ccoc1C	–	0.633 µM
Brc1ccc(CSc2nnc(-c3ccccc3)o2)cc1	-58.8% (inactive)	–
Cc1nc(NC(=O)c2cc(S(=O)(=O)N(C)C)ccc2N2CCCC2)n[nH]1	14.6% (inactive)	–
CCC1=Nc2cc(C(=O)NCCCOC)ccc2Sc2ccccc21	–	0.404 µM
Cc1ccccc1NC(=O)c1cc(S(=O)(=O)N(C)C)ccc1N1CCCC1	8.74% (inactive)	–
CC(=O)N[C@H]1[C@@H](O[C@@H]2OC(C[C@@H](O)C3O[C@@H](n4ccc(=O)[nH]c4=O)[C@H](O)[C@@H]3O)[C@H](O)[C@H](O)[C@H]2NC(=O)/C=C/CCCCCCCCCCC(C)C)O[C@H](CO)[C@@H](O)[C@@H]1O (some centres not stated)	–	0.278 µM
COc1ccc(-c2nnc(SCc3ccccc3)o2)cc1	-91.2% (inactive)	–
COc1cc(C(=O)NCCOc2cc(C)cc(C)c2)cc(OC)c1OC	–	1.85 µM
Cc1nnc(NC(=O)c2cc(S(=O)(=O)N(C)C)ccc2N2CCCC2)s1	–	4.57 µM
Cc1cnc(NC(=O)c2cc(S(=O)(=O)N(C)C)ccc2C2CCCC2)s1	–	2.21 µM
CCN(CC)c1ccc(S(=O)(=O)N(C)C)cc1C(=O)Nc1ncc(C)s1	–	3.21 µM
COc1cccc2sc(NC(=O)c3cc(S(=O)(=O)N(C)C)ccc3N3CCCC3)nc12	5.88% (inactive)	–
Cc1ccc2cc(CN(CCCN(C)C)C(=O)Nc3ccccc3)c(=O)[nH]c2c1C	-11.1% (inactive)	–
Cc1ccc(Oc2ccc(S(=O)(=O)N3CCOCC3)cc2C(N)=O)c(-n2nc3ccccc3n2)c1	–	3.4 µM
O=C1CCN(Cc2ccccc2)c2cc3ccccc3cc21	30.6% (inactive)	–
Cc1cc(C)nc(/N=C(\N)Nc2ccc(OCc3ccccc3)cc2)n1	-50% (inactive)	–
CN(C)S(=O)(=O)c1ccc(N2CCCC2)c(C(=O)NC2CCCCC2)c1	-20% (inactive)	–
O=C(N/N=C/c1ccc(Cl)cc1)c1sccc1OCc1ccc(F)cc1	–	0.839 µM
CC(=O)N1CCC(=O)c2cc3ccccc3cc21	–	2.42 µM
Cc1ccc(NC(=O)c2cc(S(=O)(=O)N(C)C)ccc2N2CCCC2)cc1	–	1.24 µM

From PubChem BioAssay AID1053121 (Broad Institute, 2014)
